The experiment relates to 188146-221-R-J1-PDC complex spheroid viability. Nature of the experiment: Anticancer human tumor 188146-221-R-J1-PDC patient-derived colon adenocarcinoma cell line growth inhibition [POLQ]. The note with it: for viability, T/C: stronger effect = lower value. The gist of the method: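 Complex spheroid viability model combining PDC tumour cells with endothelial (HUVEC) and MSC stromal cells. Novobiocin, ART-558 or RP6685 were tested singly and in combination with standard and investigational anticancer drugs. Each was titrated in half-log steps from near clinical Cmax, or from 10 microM where Cmax was unknown.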

Molecules are shown by their SMILES. Values joined by “and” are separate entries in the source; they are usually repeats but may differ in a detail not shown here. Equal values may be shown once. Some results are limits rather than exact numbers.

Consider five compounds from PubChem BioAssay AID1963851 (Molecular Pharmacology Branch, DTP, NCI, 2024).
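Also: spheroids exposed to compounds for seven days.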
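For viability, T/C in this document: 100% = DMSO vehicle control viability.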

The term viability, T/C denotes the result in the treated group divided by that in the control group, in per cent. For orientation: IC50 means the point on the concentration scale where inhibition reaches its midpoint. Turning to `C=CC(=O)N1CCN(c2nc(=O)n(-c3c(C)ccnc3C(C)C)c3nc(-c4c(O)cccc4F)c(F)cc23)C(C)C1` (stereo not given), the viability, T/C reads like this: (compound 0.0316 µM) 113% and 101% and 99.7%; (compound 0.1 µM) 104% and 89.7% and 107%; (compound 0.316 µM) 95.9% and 90.8% and 87.1%; (compound 1 µM) 109% and 113% and 108%; (compound 3.16 µM) 92.2% and 92.1% and 101%; (compound 10 µM) 68% and 102% and 77.7%. The IC50 (curve of compound) is above 10 µM.

Take `Nc1ccn(C2OC(CO)C(O)C2(F)F)c(=O)n1` (stereo not given) + Nc1ccc(C#CCN(C(=O)Cc2ncc(C(F)(F)F)cc2C(F)(F)F)c2ccc(F)cc2)nn1: the 50% inhibitory concentration (IC50) is, setting by setting: (curve of first compound, second compound 0.0316 µM) below 0.0316 µM; (curve of first compound, second compound 0.1 µM) below 0.0316 µM; (curve of first compound, second compound 0.316 µM) below 0.0316 µM; (curve of first compound, second compound 1 µM) below 0.0316 µM; (curve of first compound, second compound 3.16 µM) below 0.0316 µM; (curve of first compound, second compound 10 µM) below 0.0316 µM. Also, the viability, T/C reads like this: (second compound 0.0316 µM, first compound 0.0316 µM) 27.5%; (second compound 0.0316 µM, first compound 0.1 µM) 18%; (second compound 0.0316 µM, first compound 0.316 µM) 17.3%; (second compound 0.0316 µM, first compound 1 µM) 17.3%; (second compound 0.0316 µM, first compound 3.16 µM) 17.6%; (second compound 0.0316 µM, first compound 10 µM) 12.2%. Moreover, the viability, T/C was 33.5% (second compound 0.1 µM, first compound 0.0316 µM); 18% (second compound 0.1 µM, first compound 0.1 µM); 18.8% (second compound 0.1 µM, first compound 0.316 µM); 15.2% (second compound 0.1 µM, first compound 1 µM); 15.3% (second compound 0.1 µM, first compound 3.16 µM); 16.1% (second compound 0.1 µM, first compound 10 µM). In addition, the viability, T/C is, setting by setting: (second compound 0.316 µM, first compound 0.0316 µM) 32.9%; (second compound 0.316 µM, first compound 0.1 µM) 17.4%; (second compound 0.316 µM, first compound 0.316 µM) 15.9%; (second compound 0.316 µM, first compound 1 µM) 16.3%; (second compound 0.316 µM, first compound 3.16 µM) 16.4%; (second compound 0.316 µM, first compound 10 µM) 15.9%. For the same compound, the viability, T/C was 30.1% (second compound 1 µM, first compound 0.0316 µM); 17.6% (second compound 1 µM, first compound 0.1 µM); 18% (second compound 1 µM, first compound 0.316 µM); 16.6% (second compound 1 µM, first compound 1 µM); 19% (second compound 1 µM, first compound 3.16 µM); 14.2% (second compound 1 µM, first compound 10 µM). For the same compound, the viability, T/C is, setting by setting: (second compound 3.16 µM, first compound 0.0316 µM) 27.4%; (second compound 3.16 µM, first compound 0.1 µM) 19.8%; (second compound 3.16 µM, first compound 0.316 µM) 15.3%; (second compound 3.16 µM, first compound 1 µM) 17.1%; (second compound 3.16 µM, first compound 3.16 µM) 16.6%; (second compound 3.16 µM, first compound 10 µM) 15.4%. Also, the viability, T/C is 40.4% (second compound 10 µM, first compound 0.0316 µM); 23.2% (second compound 10 µM, first compound 0.1 µM); 20.3% (second compound 10 µM, first compound 0.316 µM); 19.1% (second compound 10 µM, first compound 1 µM); 19.4% (second compound 10 µM, first compound 3.16 µM); 14.9% (second compound 10 µM, first compound 10 µM).

Consider `Nc1ccc(C#CCN(C(=O)Cc2ncc(C(F)(F)F)cc2C(F)(F)F)c2ccc(F)cc2)nn1`, for which the viability, T/C is 94.8% [middle of 12 runs] (compound 0.0316 µM); 99.1% [middle of 13 runs] (compound 0.1 µM); 105% [middle of 13 runs] (compound 0.316 µM); 102% [middle of 13 runs] (compound 1 µM); 101% [middle of 12 runs] (compound 3.16 µM); 108% [middle of 13 runs] (compound 10 µM). In addition, the IC50 (compound alone, run of 11/06/2023) was above 10 µM.

Take `CC[C@@]1(O)C(=O)OCc2c1cc1n(c2=O)Cc2cc3c(CN(C)C)c(O)ccc3nc2-1`: the viability, T/C was 101% and 91.4% and 104% (compound 0.000316 µM); 99.7% and 100% and 110% (compound 0.001 µM); 87.8% and 92.4% and 88.8% (compound 0.00316 µM); 103% (2×) and 107% (compound 0.01 µM); 101% and 92.7% and 97.3% (compound 0.0316 µM); 71.1% and 63.3% and 63.1% (compound 0.1 µM). Besides, under “curve of compound”, the IC50 was above 0.1 µM.

Regarding `CCCS(=O)(=O)Nc1ccc(F)c(C(=O)c2c[nH]c3ncc(-c4ccc(Cl)cc4)cc23)c1F`, the viability, T/C (compound 0.0316 µM) is 104% and 98.2% and 96.2%; the viability, T/C (compound 0.1 µM) was 108% and 92.2% and 102%; the viability, T/C (compound 0.316 µM) was 111% and 95.7% and 82.7%; the viability, T/C (compound 1 µM) was 90.1% and 79.7% and 80.1%; the viability, T/C (compound 3.16 µM) was 83.9% and 85.2% and 81.8%; the viability, T/C (compound 10 µM) was 40.6% and 36.2% and 25.4%. Further, the IC50 (curve of compound) is 7.79 µM and 7.06 µM and 5.83 µM.
